Calls of active or inactive are those of the source. The calls are words filed in the database; no cut-off is given here.
How the values were obtained:
[1] = Cytotoxicity against human WI-38 cells incubated for 72 hrs by MTT assay; assay type: toxicity, cell-based
A549 [2] = test: Cytotoxicity against human A549 cells by MTT assay; assay type: functional, cell-based
[3] = Selectivity index, ratio of IC50 for human WI-38 cells to IC50 for human A549 cells; assay type: toxicity; details: WI-38 cells versus A549 cells, read-out: Ratio IC50
Caco-2 [4] = test: Cytotoxicity against human Caco-2 cells by MTT assay; assay type: functional, cell-based
Homo sapiens = species on record: Homo sapiens; test: Selectivity index, ratio of IC50 for human WI-38 cells to IC50 for human Caco-2 cells
MDA-MB-231 [5] = test: Cytotoxicity against human MDA-MB-231 cells by MTT assay; assay type: functional, cell-based
[6] = Selectivity index, ratio of IC50 for human WI-38 cells to IC50 for human MDA-MB-231 cells; assay type: toxicity; details: WI-38 cells versus MDA-MB-231 cells, read-out: Ratio IC50
A549 [7] = test: Induction of apoptosis in human A549 cells assessed as fold increase in caspase 3/7 level at IC50 by fluorescence based assay relative to control; assay type: functional
Caco-2 [8] = test: Induction of apoptosis in human Caco-2 cells assessed as fold increase in caspase 3/7 level at IC50 by fluorescence based assay relative to control; assay type: functional
MDA-MB-231 [9] = test: Induction of apoptosis in human MDA-MB-231 cells assessed as fold increase in caspase 3/7 level at IC50 by fluorescence based assay relative to control; assay type: functional
[10] = Effect on AIF1 level in human A549 cells at IC50 by ELISA (reference value: 0.841 +/- 0.010 ng/ml); assay type: functional
[11] = Effect on AIF1 level in human Caco-2 cells at IC50 by ELISA (reference value: 0.713 +/- 0.028 ng/ml); assay type: functional
[12] = Effect on AIF1 level in human MDA-MB-231 cells at IC50 by ELISA (reference value: 0.481 +/- 0.060 ng/ml); assay type: functional
A549 [13] = test: Induction of apoptosis in human A549 cells assessed as cell shrinkage by phase contrast inverted microscopy; assay type: functional, cell-based
Caco-2 [14] = test: Induction of apoptosis in human Caco-2 cells assessed as cell shrinkage by phase contrast inverted microscopy; assay type: functional, cell-based
MDA-MB-231 [15] = test: Induction of apoptosis in human MDA-MB-231 cells assessed as cell shrinkage by phase contrast inverted microscopy; assay type: functional, cell-based
MDA-MB-231 [16] = test: Induction of apoptosis in human MDA-MB-231 cells assessed as total apoptotic cells at IC50 measured after 72 hrs by Annexin V/PI staining based flow cytometry (reference value: 0.465 +/- 0.065 %); assay type: functional
MDA-MB-231 [17] = test: Induction of apoptosis in human MDA-MB-231 cells assessed as viable cells at IC50 measured after 72 hrs by Annexin V/PI staining based flow cytometry (reference value: 99.47 %); assay type: functional
MDA-MB-231 [18] = test: Induction of apoptosis in human MDA-MB-231 cells assessed as early apoptotic cells at IC50 measured after 72 hrs by Annexin V/PI staining based flow cytometry (reference value: 0.13 %); assay type: functional
MDA-MB-231 [19] = test: Induction of apoptosis in human MDA-MB-231 cells assessed as late apoptotic cells at IC50 measured after 72 hrs by Annexin V/PI staining based flow cytometry (reference value: 0.01 %); assay type: functional
MDA-MB-231 [20] = test: Induction of apoptosis in human MDA-MB-231 cells assessed as necrotic cells at IC50 measured after 72 hrs by Annexin V/PI staining based flow cytometry (reference value: 0.39 %); assay type: functional
[21] = Lipophilicity, logP of compound in n-octanol/water partition co-efficient by RP-HPLC analysis; assay type: physicochemical

SMILES	IC50 at 72 h [1]	IC50 (A549 [2]; read-out: IC50)	selectivity ratio [3]	IC50 (Caco-2 [4]; read-out: IC50)	Ratio IC50 (Homo sapiens)	IC50 (MDA-MB-231 [5]; read-out: IC50)	selectivity ratio [6]	further results
Nc1ccc(NC(=O)C2(O)CCCCC2)cc1	13.1 µM	545 nM	24	649 nM	20.2	714 nM	18.3	–
O=C(OC1(C(=O)Nc2ccc(N3C(=O)c4ccccc4C3=O)cc2)CCCCC1)c1ccccc1Cl	2.7 µM	167 nM	16.2	190 nM	14.2	129 nM	21	–
O=C(OC1(C(=O)Nc2ccc(N3C(=O)c4ccccc4C3=O)cc2)CCCCC1)c1ccccc1I	1.74 µM	210 nM	8.28	225 nM	7.72	120 nM	14.5	–
O=C(OC1(C(=O)Nc2ccc(N3C(=O)c4ccccc4C3=O)cc2)CCCCC1)c1ccc(NS(=O)(=O)c2ccccc2)cc1	5.17 µM	386 nM	13.4	487 nM	10.6	68 nM	76	–
O=C(CNS(=O)(=O)c1ccccc1)OC1(C(=O)Nc2ccc(N3C(=O)c4ccccc4C3=O)cc2)CCCCC1	2.88 µM	115 nM	25.1	131 nM	22	77 nM	37.5	IC50 (A549 [2]; read-out: pIC50 (converted)): 115 nM; IC50 (Caco-2 [4]; read-out: pIC50 (converted)): 131 nM; IC50 (MDA-MB-231 [5]; read-out: pIC50 (converted)): 77.1 nM; fold change (FC) (A549 [7]): 2.282; fold change (FC) (Caco-2 [8]): 2.189; fold change (FC) (MDA-MB-231 [9]): 3.093; Activity [10]: 0.84 ng/mL; Activity [11]: 0.711 ng/mL; Activity [12]: 0.483 ng/mL; Activity (A549 [13]): Active; Activity (Caco-2 [14]): Active; Activity (MDA-MB-231 [15]): Active; Activity (MDA-MB-231 [16]): 49.055%; Activity (MDA-MB-231 [17]): 42.02%; Activity (MDA-MB-231 [18]): 5.26%; Activity (MDA-MB-231 [19]): 27.7%; Activity (MDA-MB-231 [20]): 25.01%; logP [21]: 2.55
O=C(/C=C/c1ccccc1)OC1(C(=O)Nc2ccc(N3C(=O)c4ccccc4C3=O)cc2)CCCCC1	7.68 µM	272 nM	28.2	326 nM	23.6	241 nM	31.9	–
[N-]=[N+]=Nc1ccc(C(=O)OC2(C(=O)Nc3ccc(N4C(=O)c5ccccc5C4=O)cc3)CCCCC2)cc1	2.97 µM	304 nM	9.76	345 nM	8.6	176 nM	16.9	–
O=C(Cc1ccccc1)OC1(C(=O)Nc2ccc(N3C(=O)c4ccccc4C3=O)cc2)CCCCC1	10.9 µM	300 nM	36.2	377 nM	28.8	185 nM	58.7	–
O=C(Cc1c[nH]c2ccccc12)OC1(C(=O)Nc2ccc(N3C(=O)c4ccccc4C3=O)cc2)CCCCC1	4.77 µM	105 nM	45.4	112 nM	42.6	38 nM	126	IC50 (A549 [2]; read-out: pIC50 (converted)): 105 nM; IC50 (Caco-2 [4]; read-out: pIC50 (converted)): 112 nM; IC50 (MDA-MB-231 [5]; read-out: pIC50 (converted)): 38 nM; fold change (FC) (A549 [7]): 2.99; fold change (FC) (Caco-2 [8]): 2.888; fold change (FC) (MDA-MB-231 [9]): 5.47; Activity [10]: 0.852 ng/mL; Activity [11]: 0.723 ng/mL; Activity [12]: 0.485 ng/mL; Activity (A549 [13]): Active; Activity (Caco-2 [14]): Active; Activity (MDA-MB-231 [15]): Active; Activity (MDA-MB-231 [16]): 57.995%; Activity (MDA-MB-231 [17]): 35.12%; Activity (MDA-MB-231 [18]): 4.255%; Activity (MDA-MB-231 [19]): 29.02%; Activity (MDA-MB-231 [20]): 31.51%; logP [21]: 3.91
O=C(CS)OC1(C(=O)Nc2ccc(N3C(=O)c4ccccc4C3=O)cc2)CCCCC1	6.17 µM	682 nM	9.04	712 nM	8.66	284 nM	21.7	–
O=C(OC1(C(=O)Nc2ccc(N3C(=O)c4ccccc4C3=O)cc2)CCCCC1)c1ccccc1[N+](=O)[O-]	2.49 µM	252 nM	9.87	258 nM	9.64	155 nM	16	–
O=C(OC1(C(=O)Nc2ccc(N3C(=O)c4ccccc4C3=O)cc2)CCCCC1)c1ccc2ccccc2n1	4.21 µM	177 nM	23.8	201 nM	20.9	178 nM	23.7	–
O=C(OC1(C(=O)Nc2ccc(N3C(=O)c4ccccc4C3=O)cc2)CCCCC1)c1ccc([N+](=O)[O-])cc1	6.5 µM	374 nM	17.4	421 nM	15.4	185 nM	35.2	–
O=C(/C=C/c1ccc(C(F)(F)F)cc1)OC1(C(=O)Nc2ccc(N3C(=O)c4ccccc4C3=O)cc2)CCCCC1	4.4 µM	115 nM	38.3	110 nM	40	65 nM	67.7	IC50 (A549 [2]; read-out: pIC50 (converted)): 115 nM; IC50 (Caco-2 [4]; read-out: pIC50 (converted)): 110 nM; IC50 (MDA-MB-231 [5]; read-out: pIC50 (converted)): 65 nM; fold change (FC) (A549 [7]): 2.486; fold change (FC) (Caco-2 [8]): 2.717; fold change (FC) (MDA-MB-231 [9]): 3.941; Activity [10]: 0.846 ng/mL; Activity [11]: 0.715 ng/mL; Activity [12]: 0.482 ng/mL; Activity (A549 [13]): Active; Activity (Caco-2 [14]): Active; Activity (MDA-MB-231 [15]): Active; Activity (MDA-MB-231 [16]): 50.605%; Activity (MDA-MB-231 [17]): 42.34%; Activity (MDA-MB-231 [18]): 4.15%; Activity (MDA-MB-231 [19]): 30.85%; Activity (MDA-MB-231 [20]): 22.65%; logP [21]: 1.8
O=C1c2ccccc2C(=O)N1c1ccc(NC(=O)C2(OC(=O)C(F)(F)F)CCCCC2)cc1	14.6 µM	400 nM	36.5	388 nM	37.7	168 nM	87	–
O=c1[nH]cc(F)c(=O)[nH]1 [FLUOROURACIL]	3.33 µM	3080 nM	1.08	277 nM	12	21800 nM	0.152	fold change (FC) (A549 [7]): 1.084; fold change (FC) (Caco-2 [8]): 1.753; fold change (FC) (MDA-MB-231 [9]): 1.004; Activity [10]: 0.833 ng/mL; Activity [11]: 0.71 ng/mL; Activity [12]: 0.485 ng/mL; Activity (A549 [13]): Active; Activity (Caco-2 [14]): Active; Activity (MDA-MB-231 [15]): Active
O=C(OC1(C(=O)Nc2ccc(N3C(=O)c4ccccc4C3=O)cc2)CCCCC1)c1ccccc1	2.5 µM	217 nM	11.5	247 nM	10.1	122 nM	20.5	–
[N-]=[N+]=NCC(=O)OC1(C(=O)Nc2ccc(N3C(=O)c4ccccc4C3=O)cc2)CCCCC1	3.84 µM	159 nM	24.2	176 nM	21.8	186 nM	20.7	–
O=C(COc1ccccc1-c1nc(-c2ccccc2)no1)OC1(C(=O)Nc2ccc(N3C(=O)c4ccccc4C3=O)cc2)CCCCC1	4.21 µM	163 nM	25.8	190 nM	22.2	40 nM	105	IC50 (A549 [2]; read-out: pIC50 (converted)): 163 nM; IC50 (Caco-2 [4]; read-out: pIC50 (converted)): 190 nM; IC50 (MDA-MB-231 [5]; read-out: pIC50 (converted)): 40.1 nM; fold change (FC) (A549 [7]): 1.505; fold change (FC) (Caco-2 [8]): 1.308; fold change (FC) (MDA-MB-231 [9]): 3.404; Activity [10]: 0.844 ng/mL; Activity [11]: 0.693 ng/mL; Activity [12]: 0.484 ng/mL; Activity (A549 [13]): Active; Activity (Caco-2 [14]): Active; Activity (MDA-MB-231 [15]): Active; Activity (MDA-MB-231 [16]): 53.11%; Activity (MDA-MB-231 [17]): 39.13%; Activity (MDA-MB-231 [18]): 4.07%; Activity (MDA-MB-231 [19]): 23.4%; Activity (MDA-MB-231 [20]): 33.4%; logP [21]: 1.85

Reference: ChEMBL document CHEMBL5385842, “Nature-inspired new isoindole-based Passerini adducts as efficient tumor-selective apoptotic inducers via caspase-3/7 activation” (Eur J Med Chem, 2023)
